pIC50: −log10 of the molar value. Where two headings read alike, the source gives them in different places.
Assays:
cerebellar granule cells = assay: Protection of cerebellar granule cells against Fe2+-induced oxidative damage; assay type: cell-based, rats; settings: Rattus norvegicus, 100 µM ferrous chloride
Procedure: The cyclic nitrones were tested for their ability to protect primary cultures of cerebellar granule cells against oxidative injury induced by treatment with Fe^2+. Cerebellar granule cell cultures were prepared from 8 day old rats as previously described. Levi, G., Aloisi, F., Ciotti, M.T., Thangnipon, W., Kingsbury, A., and Balazs, R. (1989) In: A Dissection and Tissue Culture Manual of the Nervous System (Shahar, A., de Vellis, J., Vernadakis, A., and Haber, B., eds.) Alan R. Liss, Inc. New York, NY, pp. 211-214. Briefly, 8-10 cerebella were removed and placed in a Crebs-Ringer bicarbonate medium supplemented with BSA and MgSO4. Cerebella were finely chopped and digested with a trypsin/Krebs-Ringer solution. Cells were then dispersed by trituration in Krebs-Ringer containing DNase, MgSO4 and trypsin inhibitor followed by plating at a density of 1x10^6 cells/well in poly-1-lysine coated plate in MEM/10% fetal bovine serum/KCl/glutamine/gentamicin. Media was replaced at 24 hours and cytosine arabinoside added. Experiments were conducted with cells 8-10 days in vitro.
For oxidation studies the media was removed and replaced with Na^+ free Locke's solution (154.6 mM N-methyl-D-glucamine, 5.6 mM KCl, 2.3 mM CaCl2, 1 mM MgCl2, 3.6 mM NaHCO3, and 5 mM HEPES, pH 7.3) with the omission of glucose. The nitrones were added in either Locke's solution or in 20% β-cyclodextrins and allowed to incorporate into the cells for 30 min. At this time 20 µl of a 5 mM stock solution of ferrous chloride was added for a final concentration of 100 µM. After 45 min the media was removed and added to 1.5 ml of TBA/TCA (2:1) with 25 µl of 2% BHT and TBARS determined as described above. The absorbance of the control cells (no iron) was subtracted from the iron treated cells and this value taken as the denominator to determine the concentration of nitrone required to inhibit oxidation by 50%.
Fresh MEM media was added to the cells along with 100 µl of MTT. After 4 hrs, 1 ml of cold isopropanol/0.04 N HCl was added, the cells scraped, mixed well and transferred to 13 x 100 mm glass test tubes. The absorbance resulting from mitochondrial reduction of the MTT (570 nm minus 630 nm) was measured as an assessment of viability. The % cell death was determined by comparison to the absorbance of cells to which no iron was added. The difference between the iron-treated and control cells was taken as 100% and the concentration of nitrone to prevent the loss of MTT reduction capability (expressed in Table II as viability) by 50% was used as the IC50.

[1] = Hydroxyl radical trapping (inhibition of the •OH-dependent bleaching of p-NDA); assay type: biochemical; settings: IC50 for hydroxyl radical trapping in vitro
Procedure: Cyclic nitrones were evaluated for •OH trapping activity by a variety of tests. The primary assay was dependent upon the ability of the compounds to inhibit the •OH-dependent bleaching of p-NDA. Bors, W., Michel, C., and Saran, M. (1979) J. Biochem. 95, 621-627. The p-NDA was prepared at 1 mM in 50 mM NaCl, pH 7.0. The hydroxyl radical was generated using Fenton chemistry (Fe^2+/H2O2). FeCl2 is dissolved in N2 purged, double distilled H2O to a final concentration of 2.5 mM. H2O2 was prepared from a 30% stock solution (8.8 M) at 1.25 mM in the buffer. Test compounds were solubilized in buffer or ethanol at a concentration of 1 M or 5 M, depending upon solubility.
Assay mixtures in glass cuvettes contained solutions of 0.02 ml of H2O2, 0.02 ml of test compound, 0.10 ml of p-NDA and 50 mM NaCl, pH 7.0 to a final volume of 0.98 ml. The oxidation was initiated by the addition of 0.02 ml of Fe^2+ and the bleaching of p-NDA was monitored as the loss in absorbance at 440 nm for 100 sec. To generate concentration curves, serial dilutions of the test compounds were made such that a constant volume of 0.02 ml was added to the reaction mixture. Ethanol itself is an •OH trap, thus controls contained an equal volume of ethanol for any test compound requiring this vehicle. […]

[2] = Sedation after administration in rats; settings: high doses in rats
[3] = 0.75 h, 45 min, TBARS in media, read-out: TBARS IC50
[4] = IC50 for preventing loss of MTT reduction capability, read-out: Viability

## CC1(C)Cc2ccc3ccccc3c2C=[N+]1[O-] [Compound 10, 3,3-Dimethyl-3,4-dihydrobenzo[h]isoquinoline N-oxide]
Cerebellar granule cells; [3]
  pIC50: 3.98
Cerebellar granule cells; [4]
  pIC50: 3.99

## CC1(C)Cc2sccc2C=[N+]1[O-] [Compound 18, 6,6-Dimethyl-6,7-dihydrothieno[3,2-c]pyridine N-oxide]
Cerebellar granule cells; [3]
  pIC50: 2.59
Cerebellar granule cells; [4]
  pIC50: 3.06

## CC1(C)Cc2ccoc2C=[N+]1[O-] [Compound 23, 5,5-Dimethyl-4,5-dihydrofuro[2,3-c]pyridine N-oxide]
[1]
  OH RADICAL TRAPPING: no effect at 20 mM

## CC1(C)Cc2ccccc2C=[N+]1[O-] [Compound A, 3,4-dihydro-3,3-dimethylisoquinoline N-oxide, reference compound]
[2]
  sedation: causes sedation
Cerebellar granule cells; [3]
  pIC50: 3.51
Cerebellar granule cells; [4]
  pIC50: 3.53
